# Results as given in patent US5578585A, “Pleuromutilin derivative complexes” (Biochemie Gesellschaft m.b.H., priority 1991, dated 1996).
# Columns and labels:
# [1] = Feed stability: optimum ratio of compound of formula I to β-cyclodextrin; format: physicochemical; conditions: feed mixtures, ratio to β-cyclodextrin varied
# Method: (§1) As model feed a ready feed for piglets of the following composition is used:
# Various forms of the preparation are mixed with the ready feed in a concentration of 200 ppm of compound of formula I and stored for several weeks at 30°. […]
# For determination of the optimum ratio of compound of formula I to cyclodextrin, investigations are carried out using various concentrations of cyclodextrin. Results as regards stability in feed mixtures are summarized in Table 2 [in the first column "ratio" means the ratio of compound of formula I (hydrochloride) to β-cyclodextrin]: […]
# [2] = Feed stability: storage in ready piglet feed, content by HPLC; format: physicochemical; conditions: feed mixture, 200 ppm, 30°
# Method: as §1
# Various forms of the preparation are mixed with the ready feed in a concentration of 200 ppm of compound of formula I and stored for several weeks at 30°. Both the starting value of the fresh mixtures and the content values after storage for 2, 4 and 8 weeks are analysed by high pressure liquid chromatography (HPLC).
# [3] = Oral absorption in rats, plasma concentration by microbiological analysis; format: in vivo; conditions: rat, 25 mg/kg body weight, pure compound in drinking water
# Method: (§2) Absorption following administration to rats and pigs of 25 mg/kg body weight of a preparation according to Example 3 is tested and compared with pure compound of formula I (hydrochloride) in the drinking water. Blood samples are taken after a period of 24 hours and the concentration of active substance in plasma determined by microbiological analysis. The results in Table 3 show the absorption of the compound of formula I when administered in the form of a complex of the invention: […]
# [4] = Oral absorption in pigs, plasma concentration by microbiological analysis; format: in vivo; conditions: pig, 25 mg/kg body weight, pure compound in drinking water
# Method: as §2
# [5] = Stability in conventional complete feed mixtures (general statement); format: physicochemical
# [6] = system: gram-positive and gram-negative bacteria; conditions: many gram-positive and gram-negative bacteria; free base, acid addition or quaternary salt form; cited from earlier work
# [7] = Phase-solubility diagram (inclusion compound type, complex binding constant) with γ-cyclodextrin; format: physicochemical; conditions: compound of formula I in the form of the base
# Excerpt: (§3) Based on the phase-solubility diagram (see "Methods of investigating and preparing inclusion compounds and their industrial uses" in D. Duchene, "Cyclodextrins and their Industrial Uses", Editions de Sante [1987]), the following types of inclusion compounds are obtained with the compound of formula I in the form of the base and […]
# [8] = Phase-solubility diagram (inclusion compound type, complex binding constant) with β-cyclodextrin; format: physicochemical; conditions: compound of formula I in the form of the base; with cyclodextrin (printed without Greek letter)
# Excerpt: as §3
# [9] = read-out: AUC (area under curve)
# [10] = read-out: Cmax (maximum plasma concentration)
smiles,measurement,setting,value
C=C[C@]1(C)C[C@@H](OC(=O)CSC(C)(C)CNC(=O)[C@H](N)C(C)C)[C@]2(C)[C@H](C)CC[C@]3(CCC(=O)[C@H]32)[C@@H](C)[C@@H]1O [14-O-[1-((D)-2-amino-3-methylbutyrylamino)-2-methylpropan-2-ylthioacetyl]mutilin],Content after 1 month,"[1]; after 1 month, 43800 min",9%
same,Content after 2 months,"[1]; after 2 months, 87600 min",9%
same,Content after 3 months,"[1]; after 3 months, 131400 min",7%
same,"Content, initial value",[1]; initial value,100%
same,Content after 2 weeks,"[2]; after 2 weeks, 20160 min",15%
same,Content after 4 weeks,"[2]; after 4 weeks, 40320 min",8%
same,Content after 8 weeks,"[2]; after 8 weeks, 80640 min",6%
same,"Content, initial value",[2]; initial value,100%
same,AUC,[3]; [9],139000 ng·h/mL
same,Cmax,[3]; [10],8600 ng/mL
same,AUC,[4]; [9],21400 ng·h/mL
same,Cmax,[4]; [10],1200 ng/mL
"C=C[C@]1(C)C[C@@H](OC(=O)CSC(C)(C)CNC(=O)[C@H](N)C(C)C)[C@]2(C)[C@H](C)CC[C@]3(CCC(=O)[C@H]32)[C@@H](C)[C@@H]1O [compound of formula I, 14-O-[1-((D)-2-amino-3-methylbutyrylamino)-2-methylpropan-2-ylthioacetyl]mutilin]",breakdown by constituents of conventional complete feed mixtures,[5],broken down very rapidly
same,antibacterial effectiveness,[6],highly effective
same,type of inclusion compound (phase-solubility diagram),[7],type BS
same,type of inclusion compound (phase-solubility diagram),[8],type AL
